Results published in ChEMBL document CHEMBL3779769, “Indole-2-carboxylic acid derived mono and bis 1,4-disubstituted 1,2,3-triazoles: Synthesis, characterization and evaluation of anticancer, antibacterial, and DNA-cleavage activities” (Bioorg Med Chem Lett, 2016).
Values after ≈ are worked out from the molar mass of the structure shown. Active and inactive are the calls of the source. The calls are words filed in the database; no cut-off is given here.

Assays:
Escherichia coli [1] = assay: Antibacterial activity against Escherichia coli MTCC 443 by broth dilution method; assay type: functional
HeLa = assay: Cytotoxicity against human HeLa cells assessed as cell viability after 48 hrs by MTT assay; assay type: functional, cell-based
Escherichia coli [2] = assay: Induction of DNA cleavage of Escherichia coli pUC18 at 100 ug/ml by agarose gel electrophoresis
MCF7 = assay: Cytotoxicity against human MCF7 cells assessed as cell viability after 48 hrs by MTT assay; assay type: functional, cell-based; settings: MCF7, 48 h
Staphylococcus aureus = assay: Antibacterial activity against Staphylococcus aureus MTCC 96 by broth dilution method; assay type: functional
Bacillus subtilis = assay: Antibacterial activity against Bacillus subtilis MTCC 441 by broth dilution method; assay type: functional
Proteus vulgaris = assay: Antibacterial activity against Proteus vulgaris MTCC 1771 by broth dilution method; assay type: functional
HEK293 = assay: Cytotoxicity against HEK293 cells assessed as cell viability after 48 hrs by MTT assay; assay type: cell-based; settings: Homo sapiens, HEK293, 48 h
Escherichia coli [3] = assay: Induction of DNA cleavage of Escherichia coli pUC18 at 50 ug/ml by agarose gel electrophoresis
Mus musculus [4] = assay: Effect on body weight in Swiss albino mouse xenografted with mouse EAC cells at 10 mg/kg, ip administered for 9 days (reference value: 13.57 +/- 0.4 g); assay type: functional, Ehrlich
Mus musculus [5] = assay: Effect on SGOT level in Swiss albino mouse xenografted with mouse EAC cells at 10 mg/kg, ip administered for 9 days measured on day 14 (reference value: 116.04 +/- 0.14 IU/L); assay type: functional, Ehrlich
[6] = Anticancer activity against mouse EAC cells xenografted in Swiss albino mouse assessed as tumor volume at 5 mg/kg, ip administered for 9 days measured after 14 days (reference value: 12.15 +/- 0.5 ml); assay type: functional, Ehrlich
Mus musculus [7] = assay: Effect on hemoglobin level in Swiss albino mouse xenografted with mouse EAC cells at 5 mg/kg, ip administered for 9 days measured on day 14 (reference value: 5.67 +/- 0.8 g%); assay type: functional, Ehrlich
Mus musculus [8] = assay: Effect on SGPT level in Swiss albino mouse xenografted with mouse EAC cells at 5 mg/kg, ip administered for 9 days measured on day 14 (reference value: 55.3 +/- 0.52 IU/L); assay type: functional, Ehrlich
Mus musculus [9] = assay: Effect on body weight in Swiss albino mouse xenografted with mouse EAC cells at 5 mg/kg, ip administered for 9 days (reference value: 13.57 +/- 0.4 g); assay type: functional, Ehrlich
[10] = Anticancer activity against mouse EAC cells xenografted in Swiss albino mouse assessed as viable tumor cell count at 10 mg/kg, ip administered for 9 days measured after 14 days by trypan blue incorporation method (reference value: 7.30 +/- 0.6 10^7/ml); assay type: functional, Ehrlich
Mus musculus [11] = assay: Effect on SGPT level in Swiss albino mouse xenografted with mouse EAC cells at 10 mg/kg, ip administered for 9 days measured on day 14 (reference value: 55.3 +/- 0.52 IU/L); assay type: functional, Ehrlich
[12] = Anticancer activity against mouse EAC cells xenografted in Swiss albino mouse assessed as viable tumor cell count at 5 mg/kg, ip administered for 9 days measured after 14 days by trypan blue incorporation method (reference value: 7.30 +/- 0.6 10^7/ml); assay type: functional, Ehrlich
[13] = Anticancer activity against mouse EAC cells xenografted in Swiss albino mouse assessed as tumor volume at 10 mg/kg, ip administered for 9 days measured after 14 days (reference value: 12.15 +/- 0.5 ml); assay type: functional, Ehrlich
[14] = Anticancer activity against mouse EAC cells xenografted in Swiss albino mouse assessed as packed cell volume at 10 mg/kg, ip administered for 9 days measured after 14 days […] (reference value: 2.62 +/- 0.5 ml); assay type: functional, Ehrlich
[15] = Anticancer activity against mouse EAC cells xenografted in Swiss albino mouse assessed as mean survival time at 5 mg/kg, ip administered for 9 days measured for 30 days (reference value: 12.8 +/- 0.7 days); assay type: functional, Ehrlich
Mus musculus [16] = assay: Effect on WBC level in Swiss albino mouse xenografted with mouse EAC cells at 10 mg/kg, ip administered for 9 days measured on day 14 (reference value: 22.07 +/- 0.11 10^3/mm3); assay type: functional, Ehrlich
Mus musculus [17] = assay: Effect on total protein level in Swiss albino mouse xenografted with mouse EAC cells at 5 mg/kg, ip administered for 9 days measured on day 14 (reference value: 7.84 +/- 0.36 […]); assay type: functional, Ehrlich
[18] = Anticancer activity against mouse EAC cells xenografted in Swiss albino mouse assessed as packed cell volume at 5 mg/kg, ip administered for 9 days measured after 14 days […] (reference value: 2.62 +/- 0.5 ml); assay type: functional, Ehrlich
[19] = Anticancer activity against mouse EAC cells xenografted in Swiss albino mouse assessed as percent increase in life span at 5 mg/kg, ip administered for 9 days measured for 30 days; assay type: functional; settings: Ehrlich
Mus musculus [20] = assay: Effect on WBC level in Swiss albino mouse xenografted with mouse EAC cells at 5 mg/kg, ip administered for 9 days measured on day 14 (reference value: 22.07 +/- 0.11 10^3/mm3); assay type: functional, Ehrlich
Mus musculus [21] = assay: Effect on hemoglobin level in Swiss albino mouse xenografted with mouse EAC cells at 10 mg/kg, ip administered for 9 days measured on day 14 (reference value: 5.67 +/- 0.8 g%); assay type: functional, Ehrlich
[22] = Anticancer activity against mouse EAC cells xenografted in Swiss albino mouse assessed as percent increase in life span at 10 mg/kg, ip administered for 9 days measured for 30 days; assay type: functional; settings: Ehrlich
Mus musculus [23] = assay: Effect on RBC level in Swiss albino mouse xenografted with mouse EAC cells at 5 mg/kg, ip administered for 9 days measured on day 14 (reference value: 3.01+/- 0.75 10^6/mm3); assay type: functional, Ehrlich
Mus musculus [24] = assay: Effect on total protein level in Swiss albino mouse xenografted with mouse EAC cells at 10 mg/kg, ip administered for 9 days measured on day 14 (reference value: 7.84 +/- 0.36 […]); assay type: functional, Ehrlich
Mus musculus [25] = assay: Effect on RBC level in Swiss albino mouse xenografted with mouse EAC cells at 10 mg/kg, ip administered for 9 days measured on day 14 (reference value: 3.01+/- 0.75 10^6/mm3); assay type: functional, Ehrlich
[26] = Anticancer activity against mouse EAC cells xenografted in Swiss albino mouse assessed as mean survival time at 10 mg/kg, ip administered for 9 days measured for 30 days (reference value: 12.8 +/- 0.7 days); assay type: functional, Ehrlich
Mus musculus [27] = assay: Effect on SGOT level in Swiss albino mouse xenografted with mouse EAC cells at 5 mg/kg, ip administered for 9 days measured on day 14 (reference value: 116.04 +/- 0.14 IU/L); assay type: functional, Ehrlich

O=C(OCc1cn(-c2ccccc2Br)nn1)c1cc2ccccc2n1Cc1cn(-c2ccccc2Br)nn1
MIC (Escherichia coli [1]): > 150 µg/mL
IC50 (HeLa): 35.9 µM
Activity (Escherichia coli [2]): Active
IC50 (MCF7): 64.1 µM
MIC (Staphylococcus aureus): 2.34 µg/mL (≈ 3.7 µM)
MIC (Bacillus subtilis): 1.17 µg/mL (≈ 1.85 µM)
MIC (Proteus vulgaris): > 150 µg/mL
IC50 (HEK293): 12.1 µM

Cc1cccc(-n2cc(COC(=O)c3cc4ccccc4[nH]3)nn2)c1C
MIC (Escherichia coli [1]): > 150 µg/mL
IC50 (HeLa): 30.3 µM
IC50 (MCF7): 17.1 µM
MIC (Staphylococcus aureus): 4.69 µg/mL (≈ 13.5 µM)
MIC (Bacillus subtilis): > 150 µg/mL
MIC (Proteus vulgaris): > 150 µg/mL
IC50 (HEK293): 15.3 µM

CCCCc1ccc(-n2cc(COC(=O)c3cc4ccccc4n3Cc3cn(-c4ccc(CCCC)cc4)nn3)nn2)cc1
MIC (Escherichia coli [1]): > 150 µg/mL
IC50 (HeLa): 42.8 µM
IC50 (MCF7): 66.9 µM
MIC (Staphylococcus aureus): > 150 µg/mL
MIC (Bacillus subtilis): > 150 µg/mL
MIC (Proteus vulgaris): > 150 µg/mL
IC50 (HEK293): > 200 µM

Cc1cc(C)cc(-n2cc(COC(=O)c3cc4ccccc4n3Cc3cn(-c4cc(C)cc(C)c4)nn3)nn2)c1
MIC (Escherichia coli [1]): > 150 µg/mL
IC50 (HeLa): 28.8 µM
IC50 (MCF7): 45.2 µM
MIC (Staphylococcus aureus): > 150 µg/mL
MIC (Bacillus subtilis): > 150 µg/mL
MIC (Proteus vulgaris): > 150 µg/mL
IC50 (HEK293): 50.2 µM

CCCCc1ccc(-n2cc(COC(=O)c3cc4ccccc4[nH]3)nn2)cc1
MIC (Escherichia coli [1]): > 150 µg/mL
IC50 (HeLa): > 200 µM
Activity (Escherichia coli [3]): Active
IC50 (MCF7): 28.8 µM
MIC (Staphylococcus aureus): > 150 µg/mL
MIC (Bacillus subtilis): > 150 µg/mL
MIC (Proteus vulgaris): > 150 µg/mL
IC50 (HEK293): 24.2 µM

CN[C@@H]1[C@H](O[C@H]2[C@H](O[C@H]3[C@H](O)[C@@H](O)[C@H](N=C(N)N)[C@@H](O)[C@@H]3N=C(N)N)O[C@@H](C)[C@]2(O)C=O)O[C@@H](CO)[C@H](O)[C@H]1O [STREPTOMYCIN]
MIC (Escherichia coli [1]): 6.25 µg/mL (≈ 10.7 µM)
MIC (Staphylococcus aureus): 6.25 µg/mL (≈ 10.7 µM)
MIC (Bacillus subtilis): 6.25 µg/mL (≈ 10.7 µM)
MIC (Proteus vulgaris): 3.12 µg/mL (≈ 5.37 µM)

Cc1cccc(-n2cc(COC(=O)c3cc4ccccc4n3Cc3cn(-c4cccc(C)c4C)nn3)nn2)c1C
MIC (Escherichia coli [1]): > 150 µg/mL
IC50 (HeLa): > 200 µM
IC50 (MCF7): > 200 µM
MIC (Staphylococcus aureus): > 150 µg/mL
MIC (Bacillus subtilis): > 150 µg/mL
MIC (Proteus vulgaris): > 150 µg/mL
IC50 (HEK293): 14.1 µM

COc1ccc(-n2cc(COC(=O)c3cc4ccccc4[nH]3)nn2)cc1
MIC (Escherichia coli [1]): > 150 µg/mL
IC50 (HeLa): 16.1 µM
IC50 (MCF7): 16.2 µM
MIC (Staphylococcus aureus): > 150 µg/mL
MIC (Bacillus subtilis): > 150 µg/mL
MIC (Proteus vulgaris): 4.69 µg/mL (≈ 13.5 µM)
IC50 (HEK293): 42.5 µM

O=C(OCc1cn(-c2ccccc2Br)nn1)c1cc2ccccc2[nH]1
MIC (Escherichia coli [1]): > 150 µg/mL
IC50 (HeLa): 17.3 µM
IC50 (MCF7): 38.8 µM
MIC (Staphylococcus aureus): > 150 µg/mL
MIC (Bacillus subtilis): > 150 µg/mL
MIC (Proteus vulgaris): > 150 µg/mL
IC50 (HEK293): > 200 µM

O=C(OCc1cn(-c2cccc(C(F)(F)F)c2)nn1)c1cc2ccccc2n1Cc1cn(-c2cccc(C(F)(F)F)c2)nn1
Activity (Mus musculus [4]): 9.7 g
Activity (Mus musculus [5]): 98.41 IU/L
Activity [6]: 9.32 mL
MIC (Escherichia coli [1]): 1.17 µg/mL (≈ 1.92 µM)
Activity (Mus musculus [7]): 7.32 g%
Activity (Mus musculus [8]): 53.7 IU/L
Activity (Mus musculus [9]): 11.83 g
Activity [10]: 5.31 ×10⁷ /ml
Activity (Mus musculus [11]): 45.18 IU/L
Activity [12]: 6.27 ×10⁷ /ml
Activity [13]: 5.08 mL
Activity [14]: 0.86 mL
MST [15]: 17.23 days
Activity (Mus musculus [16]): 16.32 ×10³ /mm3
IC50 (HeLa): 9.89 µM
Activity (Mus musculus [17]): 7.02 mg/dL
Activity [18]: 1.63 mL
ILS at 5 mg/kg [19]: 14.2%
Activity (Mus musculus [20]): 19.32 ×10³ /mm3
Activity (Mus musculus [21]): 9.3 g%
ILS at 10 mg/kg [22]: 34.1%
IC50 (MCF7): 13.3 µM
Activity (Mus musculus [23]): 3.78 ×10⁶ /mm3
Activity (Mus musculus [24]): 5.96 mg/dL
MIC (Staphylococcus aureus): > 150 µg/mL
MIC (Bacillus subtilis): 2.34 µg/mL (≈ 3.83 µM)
MIC (Proteus vulgaris): > 150 µg/mL
Activity (Mus musculus [25]): 4.12 ×10⁶ /mm3
MST [26]: 22.56 days
Activity (Mus musculus [27]): 109.03 IU/L
IC50 (HEK293): 9.08 µM

O=C(OCc1cn(-c2cccc(C(F)(F)F)c2)nn1)c1cc2ccccc2[nH]1
MIC (Escherichia coli [1]): 2.34 µg/mL (≈ 6.07 µM)
IC50 (HeLa): 11.7 µM
Activity (Escherichia coli [2]): Active
IC50 (MCF7): 16.5 µM
MIC (Staphylococcus aureus): > 150 µg/mL
MIC (Bacillus subtilis): 4.69 µg/mL (≈ 12.1 µM)
MIC (Proteus vulgaris): > 150 µg/mL
IC50 (HEK293): 32.7 µM

COc1ccc(-n2cc(COC(=O)c3cc4ccccc4n3Cc3cn(-c4ccc(OC)cc4)nn3)nn2)cc1
MIC (Escherichia coli [1]): > 150 µg/mL
IC50 (HeLa): 56.1 µM
IC50 (MCF7): 100 µM
MIC (Staphylococcus aureus): > 150 µg/mL
MIC (Bacillus subtilis): > 150 µg/mL
MIC (Proteus vulgaris): 9.38 µg/mL (≈ 17.5 µM)
IC50 (HEK293): 43.9 µM

Cc1cc(C)cc(-n2cc(COC(=O)c3cc4ccccc4[nH]3)nn2)c1
MIC (Escherichia coli [1]): > 150 µg/mL
IC50 (HeLa): 30.2 µM
Activity (Escherichia coli [2]): Active
IC50 (MCF7): 30.5 µM
MIC (Staphylococcus aureus): > 150 µg/mL
MIC (Bacillus subtilis): > 150 µg/mL
MIC (Proteus vulgaris): > 150 µg/mL
IC50 (HEK293): 12.5 µM
